Test systems include A549; CCRF-CEM; COLO 205; K562; M19-MEL; MOLT-4; NCI-H23; NCI-H460; SF-539; SK-MEL-2; SNB-19; SNB-75; TK-10; UACC-257; SF-268; SK-MEL-28; BT-549; MDA-MB-231; MDA-MB-435; T47D.
What all share (experiment): DTP human tumour cell line panel, 48 h

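Dose response: 5 concentrations. Exposure: 48 h. Format: 96-well plates. Endpoint: linear interpolation; highest concentration if not reached. GI50: concentration for 50% inhibition of growth.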 Active and inactive are the calls of the source. Rule as the data show it: active = GI50 up to about 1.1 µM and inactive = higher.

As for `CN(C)C(=O)CC(C(=O)O)c1c[nH]c2ccccc12` (stereo unspecified), the GI50 in the assay on A549, with CCRF-CEM, in the assay on COLO 205, in the assay with K562, with M19-MEL and with MOLT-4 was > 100 µM (inactive) throughout. In addition, the GI50 with NCI-H23, in the assay with NCI-H460, with SF-539, in the assay with SK-MEL-2, in the assay with SNB-19 and with SNB-75 was > 100 µM (inactive) each time. The GI50 with TK-10 and in the assay with UACC-257 was > 100 µM (inactive) throughout.

Take `Cc1ccc(C)c(NC(=O)CCc2n[nH]c(=S)o2)c1`: the GI50 in the assay on A549, in the assay with CCRF-CEM, with COLO 205, in the assay on K562, with M19-MEL and in the assay on MOLT-4 was > 100 µM (inactive) in each case. In addition, the GI50 in the assay with NCI-H23, in the assay with NCI-H460, in the assay on SF-268, with SF-539, in the assay on SK-MEL-28 and in the assay with SNB-19 was > 100 µM (inactive) throughout. In addition, the GI50 in the assay with SNB-75, with TK-10 and with UACC-257 was > 100 µM (inactive) each time.

Consider `CC[N+](C)(CC)CC(C)(C)C(=O)/C=C/c1ccc(/C=C/C(=O)C(C)(C)C[N+](C)(CC)CC)cc1`, for which the GI50 with A549, in the assay on CCRF-CEM, in the assay on COLO 205, with K562, in the assay with M19-MEL and with MOLT-4 was > 100 µM (inactive) in each case. Besides, the GI50 in the assay with NCI-H23, in the assay with NCI-H460, with SF-268, in the assay with SF-539, with SK-MEL-28 and in the assay on SNB-19 was > 100 µM (inactive) each time. Besides, the GI50 with SNB-75, with TK-10 and in the assay on UACC-257 was > 100 µM (inactive) each time.

As to `CC(=O)N1CC(=O)NC1=S`, the GI50 in the assay with A549, in the assay on CCRF-CEM, with COLO 205, in the assay on K562, in the assay with M19-MEL and with MOLT-4 was > 100 µM (inactive) in each case. The GI50 in the assay with NCI-H23, in the assay on SF-268, with SF-539, with SK-MEL-28, in the assay on SK-MEL-2 and in the assay with SNB-19 was > 100 µM (inactive) each time. For the same compound, the values for the GI50 in the assay on SNB-75, in the assay on TK-10 and with UACC-257 were 69.3 µM (inactive), > 100 µM (inactive) and > 100 µM (inactive), respectively.

Consider `COc1ccc2occ(CCC(=O)O)c2c1`, for which the GI50 in the assay with A549, in the assay on CCRF-CEM, in the assay on COLO 205, in the assay on K562, in the assay on M19-MEL and in the assay on MOLT-4 was > 100 µM (inactive) in each case. The GI50 with NCI-H23, with NCI-H460, with SF-539, in the assay with SK-MEL-28, in the assay with SNB-19 and with SNB-75 was > 100 µM (inactive) in each case. For the same compound, the GI50 with TK-10 and in the assay on UACC-257 was > 100 µM (inactive) throughout.

As for `O=C1CC[C@@H](S(=O)(=O)c2ccccc2)[C@H](/C=C/c2ccccc2)O1`, the GI50 in the assay with A549, with CCRF-CEM, in the assay with COLO 205, with K562, with M19-MEL and in the assay on MOLT-4 was > 100 µM (inactive) throughout. Also, the GI50 with NCI-H23, with NCI-H460, with SF-539, in the assay on SK-MEL-28, in the assay with SNB-19 and in the assay with SNB-75 was > 100 µM (inactive) throughout. Further, the GI50 in the assay on TK-10 and in the assay with UACC-257 was > 100 µM (inactive) in each case.

With `CCOC(OCC)c1ccc(/C=C/c2cc(OC)c(OC)c(OC)c2)cc1`, the GI50 (commonly the concentration at which growth is held to half of that of the control) was 27.7 µM (inactive) in the assay with A549; 12.9 µM (inactive) with CCRF-CEM; 18.7 µM (inactive) with COLO 205; 17.1 µM (inactive) in the assay with K562; 19.9 µM (inactive) in the assay with M19-MEL; 19.1 µM (inactive) with NCI-H460. Further, the GI50 was 23.1 µM (inactive) in the assay with SF-268; 15.8 µM (inactive) in the assay with SF-539; 21 µM (inactive) with SK-MEL-28; 29 µM (inactive) with SNB-19; 19.5 µM (inactive) in the assay with SNB-75; 33.4 µM (inactive) in the assay with TK-10. Further, the GI50 in the assay with UACC-257 was 20.2 µM (inactive).

For `CCOc1cc2c(cc1OC)c[n+](C)c1c3cc(OC)c(OC)cc3ccc21`, the GI50 was > 100 µM (inactive) in the assay with A549; 35.9 µM (inactive) in the assay on CCRF-CEM; 31.6 µM (inactive) in the assay on COLO 205; > 34.3 µM (inactive) with K562; > 56.1 µM (inactive) in the assay on M19-MEL; > 81.3 µM (inactive) in the assay with MOLT-4. Besides, the GI50 is > 93.5 µM (inactive) in the assay with NCI-H23; > 73.6 µM (inactive) in the assay on NCI-H460; > 93.3 µM (inactive) with SF-268; > 100 µM (inactive) in the assay on SF-539; > 64.1 µM (inactive) in the assay with SK-MEL-28; 33.3 µM (inactive) with SK-MEL-2. For the same compound, the GI50 in the assay on SNB-19 was > 52.5 µM (inactive); in the assay on TK-10 it was 59.4 µM (inactive); with UACC-257 it was > 61.4 µM (inactive).

Consider `CCN(CC)C(=S)SCC(=O)Nc1nc2c(s1)CCCC2`, for which the GI50 in the assay on A549 is > 100 µM (inactive); in the assay with CCRF-CEM, 49.4 µM (inactive); with COLO 205, 95.1 µM (inactive); with M19-MEL it was 52.7 µM (inactive); in the assay with MOLT-4, 41.4 µM (inactive); with NCI-H23 it was 74.1 µM (inactive). Besides, the GI50 in the assay with NCI-H460 was 68.9 µM (inactive); with SF-268 it was > 100 µM (inactive); in the assay with SF-539 it was > 100 µM (inactive); with SK-MEL-28, > 100 µM (inactive); in the assay on SK-MEL-2, > 100 µM (inactive); with SNB-19, > 100 µM (inactive). The GI50 with SNB-75 was 72.6 µM (inactive); in the assay on TK-10 it was > 100 µM (inactive); with UACC-257, 36.9 µM (inactive).

As for `O=C(/C=C/c1ccc([N+](=O)[O-])o1)N1CCN(Cc2ccccc2)CC1`, the GI50 with A549 is 16.9 µM (inactive); in the assay with CCRF-CEM, 2.7 µM (inactive); with K562, 3.46 µM (inactive); in the assay with M19-MEL, 6.43 µM (inactive); in the assay on MOLT-4 it was 11.6 µM (inactive); in the assay with NCI-H23, 5.93 µM (inactive). Moreover, the GI50 in the assay on NCI-H460 is 11.2 µM (inactive); in the assay with SF-268, 14 µM (inactive); in the assay on SF-539, 6.61 µM (inactive); with SK-MEL-28, 4.89 µM (inactive); with SNB-19, 16.2 µM (inactive); in the assay with SNB-75, 14.7 µM (inactive). Moreover, the figures for the GI50 in the assay on TK-10 and in the assay on UACC-257 were 23.2 µM (inactive) and 7.89 µM (inactive), respectively.

In the case of `Nc1nc2c(c(=O)[nH]1)NC(CO)CN2` (stereo unspecified), the GI50 was > 100 µM (inactive) with A549; 29.9 µM (inactive) with CCRF-CEM; > 100 µM (inactive) with COLO 205; 51.3 µM (inactive) with K562; 63.2 µM (inactive) in the assay with M19-MEL; 37.1 µM (inactive) in the assay with MOLT-4. In addition, the GI50 in the assay on NCI-H23, in the assay on NCI-H460, in the assay with SF-539, with SK-MEL-28, in the assay with SNB-19 and in the assay on SNB-75 was > 100 µM (inactive) throughout. Moreover, the GI50 in the assay with TK-10 is > 100 µM (inactive); in the assay on UACC-257 it was 24.3 µM (inactive).

With `Nc1ccc(-c2nc3cc(F)ccc3s2)cc1I`, the GI50 was 23.6 µM (inactive) with A549; 13.5 µM (inactive) in the assay with BT-549; > 100 µM (inactive) in the assay on CCRF-CEM; 2.45 µM (inactive) in the assay on COLO 205; > 77.3 µM (inactive) with K562; 13.6 µM (inactive) in the assay with MDA-MB-231. Also, the GI50 with MDA-MB-435 is > 80.9 µM (inactive); in the assay on MOLT-4, > 100 µM (inactive); in the assay with NCI-H23 it was 0.445 µM (active); with NCI-H460, 0.0276 µM (active); in the assay on SF-268, 16.5 µM (inactive); in the assay with SF-539 it was 15.6 µM (inactive). Also, the GI50 with SK-MEL-28 was 52.7 µM (inactive); in the assay with SK-MEL-2, 20.2 µM (inactive); in the assay on SNB-19, 21.1 µM (inactive); with SNB-75, 16.1 µM (inactive); with T47D, 0.0658 µM (active); in the assay on TK-10 it was 0.0351 µM (active). In addition, the GI50 with UACC-257 is 49.3 µM (inactive).

On to `CC1Cc2c(N)nc(NN)nc2NC1=O` (stereo unspecified), for which the GI50 in the assay on A549, with CCRF-CEM, with COLO 205, in the assay on K562, in the assay with M19-MEL and with MOLT-4 was > 100 µM (inactive) in each case. Further, the GI50 in the assay with NCI-H23, in the assay with NCI-H460, with SF-539, in the assay with SK-MEL-28, with SNB-19 and in the assay with SNB-75 was > 100 µM (inactive) each time. The GI50 with TK-10 and with UACC-257 was > 100 µM (inactive) each time.

These data come from ChEMBL document CHEMBL1201862, “PubChem BioAssay data set” (2004).
